Test results taken from the supplement of paper PMC10307832.

What was measured:
Test in all cases: relative viability (nuclei count vs DMSO), 5 days (fraction); higher = more cells survive
[1] = compound: Cn1cnc2c(F)c(Nc3ccc(Br)cc3Cl)c(C(=O)NOCCO)cc21 [Selumetinib] + CC(C)C[C@H](NC(=O)[C@H](Cc1ccccc1)NC(=O)c1cnccn1)B(O)O [Bortezomib] (partner 0.002 µM)
Method in brief: (§1)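 Lung cancer cell lines were seeded in 1536-well plates and dosed by pin tool the next day, with either a single drug or a fixed anchor-drug dose combined with five library-drug doses (not always all listed) spaced in √10 steps. Five days later, one step fixed the cells and stained their nuclei (final 0.05% Triton X-100, 1% formaldehyde, 1 ug/ml Hoechst), and nuclei were counted on 4× images. Relative viability is the nuclei count in treated wells divided by the count in vehicle wells, and each value is the median of duplicate plates.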

[2] = compound: CC1(C)CCC(CN2CCN(c3ccc(C(=O)NS(=O)(=O)c4ccc(NCC5CCOCC5)c([N+](=O)[O-])c4)c(Oc4cnc5[nH]ccc5c4)c3)CC2)=C(c2ccc(Cl)cc2)C1 [Venetoclax] + CC(=O)c1c(C)c2cnc(Nc3ccc(N4CCNCC4)cn3)nc2n(C2CCCC2)c1=O [Palbociclib] (partner 0.5 µM)
Method in brief: as §1

[3] = compound: Cn1cnc2c(F)c(Nc3ccc(Br)cc3Cl)c(C(=O)NOCCO)cc21 [Selumetinib] + O=C(CCCCCCC(=O)Nc1ccccc1)NO [Vorinostat] (partner 1 µM)
Method in brief: as §1

[4] = compound: CC1(C)CCC(CN2CCN(c3ccc(C(=O)NS(=O)(=O)c4ccc(NCC5CCOCC5)c([N+](=O)[O-])c4)c(Oc4cnc5[nH]ccc5c4)c3)CC2)=C(c2ccc(Cl)cc2)C1 [Venetoclax] + C[C@@H](Oc1cc(-c2cnn(C3CCNCC3)c2)cnc1N)c1c(Cl)ccc(F)c1Cl [Crizotinib] (partner 1 µM)
Method in brief: as §1

Row | Cell Line | relative viability ([1]; first compound 0.02 µM) | relative viability ([1]; first compound 0.06325 µM) | relative viability ([1]; first compound 0.2 µM) | relative viability ([1]; first compound 0.6325 µM) | relative viability ([2]; first compound 0.01 µM) | relative viability ([2]; first compound 0.03162 µM) | relative viability ([2]; first compound 0.1 µM) | relative viability ([2]; first compound 0.3162 µM) | relative viability ([2]; first compound 1 µM) | relative viability ([3]; first compound 0.02 µM) | relative viability ([3]; first compound 0.06325 µM) | relative viability ([3]; first compound 0.2 µM) | relative viability ([3]; first compound 0.6325 µM) | relative viability ([4]; first compound 0.01 µM) | relative viability ([4]; first compound 0.03162 µM) | relative viability ([4]; first compound 0.1 µM) | relative viability ([4]; first compound 0.3162 µM) | relative viability ([4]; first compound 1 µM)
1 | HCC-44 | 0.993 | 0.882 | 0.945 | 0.971 | 0.928 | 0.954 | 0.934 | 0.899 | 0.919 | 1.1 | 1.05 | 1.06 | 1.07 | 0.748 | 0.852 | 0.83 | 0.778 | 0.762
2 | HCC-78 | 0.468 | 0.359 | 0.392 | 0.425 | 0.456 | 0.534 | 0.437 | 0.433 | 0.469 | 0.433 | 0.358 | 0.413 | 0.482 | 0.315 | 0.338 | 0.307 | 0.393 | 0.362
3 | HCC-366 | 1.07 | 0.935 | 0.864 | 0.761 | 0.391 | 0.359 | 0.314 | 0.37 | 0.326 | 0.335 | 0.41 | 0.344 | 0.445 | 0.502 | 0.609 | 0.621 | 0.505 | 0.388
4 | HCC-827 | 1.22 | 1.03 | 1.02 | 0.975 | 0.526 | 0.627 | 0.463 | 0.442 | 0.534 | 1 | 0.906 | 0.999 | 0.957 | 0.982 | 0.923 | 0.924 | 0.94 | 0.837
5 | IA-LM | 0.742 | 0.497 | 0.304 | 0.257 |  |  |  |  |  | 0.728 | 0.648 | 0.366 | 0.198 | 0.727 | 0.709 | 0.584 | 0.848 | 0.708
6 | LK-2 |  |  |  |  | 0.681 | 0.682 | 0.815 | 0.65 | 0.688 | 0.296 | 0.288 | 0.296 | 0.711 | 0.192 | 0.214 | 0.262 | 0.248 | 0.253
7 | NCI-H358 |  |  |  |  | 0.131 | 0.114 | 0.13 | 0.13 | 0.131 | 0.422 | 0.335 | 0.265 | 0.248 | 0.577 | 0.609 | 0.581 | 0.837 | 0.63
8 | NCI-H522 |  |  |  |  | 0.929 | 0.95 | 0.925 | 0.816 | 0.968 | 0.855 | 0.846 | 0.851 | 0.921 |  |  |  |  | 
9 | NCI-H596 | 0.92 | 0.93 | 0.835 | 0.621 |  |  |  |  |  | 0.368 | 0.557 | 0.578 | 0.606 | 1.14 | 0.893 | 1.02 | 1.02 | 1.02
10 | NCI-H1299 | 1.08 | 1.09 | 1.07 | 0.977 |  |  |  |  |  |  |  |  |  | 0.974 | 0.998 | 0.937 | 0.912 | 0.907
11 | NCI-H1395 |  |  |  |  | 0.62 | 0.609 | 0.576 | 0.603 | 0.58 | 0.761 | 0.613 | 0.653 | 0.775 |  |  |  |  | 
12 | NCI-H1563 | 0.804 | 0.68 | 0.726 | 0.786 |  |  |  |  |  |  |  |  |  | 0.872 | 0.878 | 0.884 | 0.996 | 0.907
13 | NCI-H1648 |  |  |  |  |  | 0.283 | 0.255 | 0.249 | 0.225 |  | 0.596 | 0.423 | 0.367 |  |  |  |  | 
14 | NCI-H1703 | 0.309 | 0.255 | 0.403 | 0.434 |  |  |  |  |  |  |  |  |  | 0.655 | 0.635 | 0.634 | 1.15 | 0.605
15 | NCI-H1792 | 0.852 | 0.789 | 0.706 | 0.677 | 0.657 | 0.678 | 0.65 | 0.699 | 0.583 |  |  |  |  | 0.938 | 0.946 | 0.983 | 0.98 | 0.93
16 | NCI-H1793 |  |  |  |  | 0.296 | 0.304 | 0.306 | 0.327 | 0.27 | 0.512 | 0.422 | 0.445 | 0.365 |  |  |  |  | 
17 | NCI-H1944 |  |  |  |  | 0.401 | 0.314 | 0.314 | 0.288 | 0.299 | 0.562 | 0.448 | 0.441 | 0.491 | 1.18 | 1.17 | 0.791 | 1.04 | 1.12
18 | NCI-H2170 |  |  |  |  | 0.378 | 0.412 | 0.389 | 0.368 | 0.355 | 0.905 | 0.74 | 0.705 | 0.786 | 1.07 | 1.23 | 1.12 | 1.15 | 1.13
19 | NCI-H2342 |  |  |  |  | 0.564 | 0.491 | 0.56 | 0.508 | 0.52 | 0.784 | 0.746 | 0.737 | 0.812 |  |  |  |  | 
20 | SK-MES-1 |  |  |  |  | 0.329 | 0.336 | 0.327 | 0.326 | 0.286 | 0.938 | 0.85 | 0.853 | 0.65 | 1.01 | 1.08 | 1.05 | 1.01 | 0.843
21 | SW 900 |  |  |  |  | 0.506 | 0.516 | 0.497 | 0.552 | 0.498 | 0.423 | 0.399 | 0.409 | 0.588 |  |  |  |  | 
